Results taken from patent US20240066003A1, “NEURODEVELOPMENTAL DISORDER THERAPY” (Anavex Life Sciences Corp., priority 2016, published 2024).

What was measured:
[1] = system: heterozygous MECP2knockout mice (HET); assay: Rotarod; type: in vivo
Method: Studies employed wild type (WT) mice and heterozygous MECP2knockout mice (HET) All mice were provided by Jackson Laboratory, Bar Harbor, Maine. HET mice were Bird mice (Jackson Laboratories, Bar Harbor, ME, B6.129P2(C)-Mecp2^tm1.1Bird/Stock Number: 003890) were obtained by crossing het females with wild type (WT) males (C57B/6J). […] Mecp2 females testing at ˜8 and ˜12 weeks of age WT—vehicle (0.25% MC/dH2O) HET—vehicle (0.25% MC/dH2O) HET—A2-733 (10 mg/kg) HET—A2-733 (30 mg/kg) Chronic dosing (p.o.) daily, starting at ˜5.5 weeks of age and continuing through the 12-week behavioral testing time point 60 min pre-treatment during behavioral testing. The rotarod performance test is a performance test based on a rotating rod with forced motor activity being applied, usually by a rodent. The test measures parameters such as riding time (seconds) or endurance. Some of the functions of the test include evaluating balance, grip strength, and motor coordination of the subjects; especially in testing the effect of experimental drugs or after traumatic brain injury. Mice are placed on the rotarod apparatus (PsychoGenics, Tarrytown New York) consisting of a rod that rotates at a constant or variable and accelerating speed of 4 rpm. Once a mouse loses its balance and falls onto an underlying platform the timer automatically stops. Mice are exposed to the apparatus for 5 min training at a constant speed and placed back on the rod after each fall. After a rest period of at least 1 hr. animals are placed back on the rotarod apparatus for testing. Once all animals in a test session are loaded on the rod, the rotarod apparatus is placed on accelerating speed (0-40 rpm) over 5 min and the time until the first fall is recorded. The test is repeated three consecutive times per animal. For each test session, the RPM score at time of fall off the rod are recorded.

[2] = target: sigma-1 receptors (Homo sapiens, UniProt Q99720); settings: believed to bind; cited from earlier work
[3] = system: Rett syndrome; assay: Example 3 seizure reduction in Rett syndrome patient; type: in vivo, human; settings: oral 2 mg daily, after 5 days, 6 to 10 seizures per day before therapy
Method: A person presents with Rett syndrome. They experience 6 to 10 seizures per day prior to commencing therapy. They begin treatment with oral doses of A2-73 at 2 mg daily. After 5 days of treatment, the number of daily seizures is reduced to 3 or fewer.

[4] = system: Williams syndrome; assay: Example 6 weight gain in Williams syndrome patient; type: in vivo, human; settings: person, i.v. 5 mg every other day, after 60 days
Method: A person presents with Williams syndrome. […] They begin treatment with i.v. doses of A2-73 at 5 mg every other day.

[5] = system: Rett syndrome; assay: Example 1 breathing variability in Rett syndrome patient; type: in vivo, human; settings: person, oral 4 mg daily for 10 days
Method: A person presenting with Rett syndrome is administered oral doses of A2-73 at 4 mg daily for 10 days. On presentation, their breathing is abnormal. Their mean breaths per minute is calculated to assess breathing variability.

[6] = system: multiple sclerosis; assay: Example 8 gadolinium-enhanced MRI lesions in multiple sclerosis patient; type: in vivo, human; settings: person, oral 40 mg every fifth day, weeks 12, 16, 20 and 24 vs 12 week pretreatment MRI
Method: A person presents with multiple sclerosis. They begin treatment with oral doses of A2-73 at 40 mg every fifth day.

[7] = system: Smith—Magenis syndrome; assay: Example 7 sleep in Smith-Magenis syndrome patient; type: in vivo, human; settings: person, oral 10 mg/day, after 15 days
Method: A person presents with Smith—Magenis syndrome. They experience disturbed sleep. They begin treatment with oral doses of A2-73 at 10 mg/day.

[8] = system: Rett syndrome; assay: Example 2 cardiac pulse rate in Rett syndrome patient; type: in vivo, human; settings: person, oral 20 mg daily for 5 days
Text: A person presents with Rett syndrome. Their real time cardiac pulse rate is monitored. Prior to commencing therapy, their heart rate is 49 beats per minute with substantial variability.

[9] = system: Angelman syndrome; assay: Example 5 sleep and seizures in Angelman syndrome patient; type: in vivo, human; settings: person, oral 30 mg/day, after 15 days
Method: A person presents with Angelman syndrome. They experience disturbed sleep and frequent seizures prior to commencing therapy. They begin treatment with oral doses of A2-73 at 30 mg/day.

[10] = system: Rett syndrome; assay: Example 4 eating and choking in Rett syndrome patient; type: in vivo, human; settings: person, oral 40 mg every other day, after 60 days
Method: A person presents with Rett syndrome. […] They begin treatment with oral doses of A2-73 at 40 mg every other day.

[11] = 8 weeks of age, 10 and 30 mg/kg p.o. daily, HET mice
[12] = 12 weeks of age, both doses (10 and 30 mg/kg p.o. daily)

Sequence of sigma-1 receptors (Q99720 whole entry): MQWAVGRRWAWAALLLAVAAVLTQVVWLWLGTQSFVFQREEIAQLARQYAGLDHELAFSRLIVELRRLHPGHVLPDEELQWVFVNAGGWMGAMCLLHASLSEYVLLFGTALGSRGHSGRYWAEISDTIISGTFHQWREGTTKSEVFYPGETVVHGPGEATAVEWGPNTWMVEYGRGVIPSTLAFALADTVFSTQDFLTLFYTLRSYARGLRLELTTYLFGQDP

With CN(C)CC1CCOC1(c1ccccc1)c1ccccc1.Cl (centres unmarked) [A2-73, tetrahydro-N,N-dimethyl-2,2-diphenyl-3-furanmethanamine hydrochloride] the “rotarod speed at fall, treatment effect” value [1, 11] was “No significant treatment effects”, the “rotarod time to fall, treatment effect” value [1, 11] was “No significant treatment effects” and the “rotarod speed at fall vs vehicle-treated mutant mice” value [1, 12] was “fell at higher speeds”. For the same molecule, the “rotarod time to fall vs vehicle-treated mutant mice” value [1, 12] was “took more time to fall off the rod”, the “rotarod speed at fall, without outliers” value ([1]; 12 weeks of age, higher dose (30 mg/kg), outliers removed) was “effect at the higher dose disappeared” and the “affinity for sigma-1 receptors” value [2] was “low micromolar range”. The “number of daily seizures” value [3] was at most 3, the weight gain [4] was 10% and the “breathing variability (breaths/minute)” value [5] was “significantly reduced”. For the same molecule, the “total number of gadolinium-enhanced lesions on MRI” value [6] was “substantially reduced”, the sleep [7] was “markedly less disturbed” and the heart rate variability [8] was “variability is reduced”. For the same molecule, the average heart rate ([8]; 49 beats per minute before therapy) was 75 beats per minutes, the “reduction of instances of seizure” value [9] was 50% and the sleep [9] was “markedly less disturbed”. For the same molecule, the instances of choking [10] was “reduced” and the weight gain [10] was 10%.
